Reference: patent US20150148422A1, “METHOD FOR […] AND METHOD FOR CLEANING SURFACES” (JSK Capital, LLC, priority 2012, published 2015)
Where two headings read alike, the source gives them in different places.

Columns and labels:
[1] = tested on: Aspergillus brasiliensis (ATCC 16404); assay: USP <51> antimicrobial effectiveness (challenge) test, A. brasiliensis; format: cell-based; conditions: for Log A brasiliensis: initial inoculum 2.6 × 10^5 cfu/mL = 5.41; for Log Change (A brasiliensis), decrease in log 10 of organism from initial spike: initial log 5.41
From the text: (§1) See Antimicrobial Test Laboratories description of USP 51 Test.

[2] = tested on: Candida albicans (ATCC 10231); assay: USP <51> antimicrobial effectiveness (challenge) test, C. albicans; format: cell-based; conditions: for Log C albicans: initial inoculum 9.4 × 10^5 cfu/mL = 5.97; for Log Change (C albicans), decrease in log 10 of organism from initial spike: initial log 5.97
From the text: as §1

Pseudomonas aeruginosa = assay: USP <51> antimicrobial effectiveness (challenge) test, P. aeruginosa; format: cell-based; conditions: for Log P. aeruginosa: initial inoculum 2.9 × 10^5 cfu/mL = 5.46; for Log Change (P. aeruginosa), decrease in log 10 of organism from initial spike: initial log 5.46
From the text: as §1

[3] = tested on: Escherichia coli (ATCC 8739); assay: USP <51> antimicrobial effectiveness (challenge) test, E. coli; format: cell-based; conditions: for Log E. coli: initial inoculum 5.0 × 10^5 cfu/mL = 5.70; for Log Change (E. coli), decrease in log 10 of organism from initial spike: initial log 5.70
From the text: as §1

[4] = tested on: Staphylococcus aureus (ATCC 6538P); conditions: initial log 5.34
Method: USP 51 challenges (inoculates) a formula with 5 different microorganisms, separately. Three bacteria and two fungal strains are used for each USP 51 test. Test microorganisms are grown in liquid or on solid medium, depending on the microorganism. Microorganisms used for a USP 51 test include: 1) Candida albicans (a yeast which is a form of fungus), 2) Aspergillus brasiliensis (a filamentous mold and also a fungus), 3) Escherichia coli (a bacterium better known as “E. coli”), 4) Pseudomonas aeruginosa (a bacterium that is problematic industrially), and 5) Staphylococcus aureus (a bacterium known as “Staph”).
The test microorganisms are either harvested by centrifugation from broth culture or by washing surface growth from a solid medium into a sterile vessel. The concentrations of test microorganisms are standardized by re-suspending harvested microorganisms in sterile saline to yield ˜1×10̂8 CFU/ml. […] A recovery analysis is performed to verify that microorganisms present in a sample can be adequately recovered and enumerated using the chosen dilution and plating scheme. A sufficient volume of test product (typically 10 ml) is distributed into each of 5 separate containers, and each container is inoculated with a separate test microorganism (mentioned above). The initial concentration of viable microorganisms in the test product is determined by standard dilution and plate count methods. […] The microorganism concentration at each interval is compared to the initial concentration, and then preservative effectiveness is determined based upon USP guidelines.
Here, a USP 51 test was conducted with the following parameters. For preparatory method suitability, validated recovery of organisms using TSB+IAA broth.

urea sulfate
Log A brasiliensis ([1]; Day 1): <1 Log
Log Change (A brasiliensis), decrease in log 10 of organism from initial spike ([1]; Day 1): >*4.97 log 10
Log A brasiliensis ([1]; Day 7): <1 Log
Log Change (A brasiliensis), decrease in log 10 of organism from initial spike ([1]; Day 7): >*4.97 log 10
Log A brasiliensis ([1]; Day 14): <1 Log
Log Change (A brasiliensis), decrease in log 10 of organism from initial spike ([1]; Day 14): >*4.97 log 10
Log A brasiliensis ([1]; Day 28): <1 Log
Log Change (A brasiliensis), decrease in log 10 of organism from initial spike ([1]; Day 28): >*4.97 log 10
change in the amount of Aspergillus brasiliensis ([1]; after a month): no measurable change
Log C albicans ([2]; Day 1): <1 Log
Log Change (C albicans), decrease in log 10 of organism from initial spike ([2]; Day 1): >*4.97 log 10
Log C albicans ([2]; Day 7): <1 Log
Log Change (C albicans), decrease in log 10 of organism from initial spike ([2]; Day 7): >*4.97 log 10
Log C albicans ([2]; Day 14): <1 Log
Log Change (C albicans), decrease in log 10 of organism from initial spike ([2]; Day 14): >*4.97 log 10
Log C albicans ([2]; Day 28): <1 Log
Log Change (C albicans), decrease in log 10 of organism from initial spike ([2]; Day 28): >*4.97 log 10
change in the amount of Candida albicans ([2]; after a month): no measurable change
Log P. aeruginosa (Pseudomonas aeruginosa; Day 1): <1 Log
Log Change (P. aeruginosa), decrease in log 10 of organism from initial spike (Pseudomonas aeruginosa; Day 1): >*4.46 log 10
Log P. aeruginosa (Pseudomonas aeruginosa; Day 7): <1 Log
Log Change (P. aeruginosa), decrease in log 10 of organism from initial spike (Pseudomonas aeruginosa; Day 7): >*4.46 log 10
Log P. aeruginosa (Pseudomonas aeruginosa; Day 14): <1 Log
Log Change (P. aeruginosa), decrease in log 10 of organism from initial spike (Pseudomonas aeruginosa; Day 14): >*4.46 log 10
Log P. aeruginosa (Pseudomonas aeruginosa; Day 28): <1 Log
Log Change (P. aeruginosa), decrease in log 10 of organism from initial spike (Pseudomonas aeruginosa; Day 28): >*4.46 log 10
change in the amount of Pseudomonas aeruginosa (Pseudomonas aeruginosa; after a month): no measurable change
Log E. coli ([3]; Day 1): <1 Log
Log Change (E. coli), decrease in log 10 of organism from initial spike ([3]; Day 1): >*4.70 log 10
Log E. coli ([3]; Day 7): <1 Log
Log Change (E. coli), decrease in log 10 of organism from initial spike ([3]; Day 7): >*4.70 log 10
Log E. coli ([3]; Day 14): <1 Log
Log Change (E. coli), decrease in log 10 of organism from initial spike ([3]; Day 14): >*4.70 log 10
Log E. coli ([3]; Day 28): <1 Log
Log Change (E. coli), decrease in log 10 of organism from initial spike ([3]; Day 28): >*4.70 log 10
change in the amount of Escherichia coli ([3]; after a month): no measurable change
Log Change (S aureus), decrease in log 10 of organism from initial spike ([4]; Day 1): >*4.34 log 10
Log Change (S aureus), decrease in log 10 of organism from initial spike ([4]; Day 7): >*4.34 log 10
Log Change (S aureus), decrease in log 10 of organism from initial spike ([4]; Day 14): >*4.34 log 10
Log Change (S aureus), decrease in log 10 of organism from initial spike ([4]; Day 28): >*4.34 log 10
